Laboratory results from patent publication US7915291B2, “Hepatitis C virus inhibitors” (Bristol-Myers Squibb Company, priority 2002, dated 2011).
pIC50: −log10 of the molar value.

Target: T1, HCV NS3/4A protease complex, H77C strain (Hepatitis C virus genotype 1a, UniProt P27958, C1454S)
T1 construct: recombinant HCV NS3/4A protease complex (amino acids 1027 to 1711); inferred from pET21b vector and Ni-NTA purification; made in house; host or cells: Escherichia coli BL21 (DE3), pET21b
Experiment: Recombinant HCV NS3/4A protease complex FRET peptide assay (H77C strain)
Assay type: biochemical, HCV genotype 1a
Source text: Recombinant HCV NS3/4A Protease Complex FRET Peptide Assay
The purpose of this in vitro assay was to measure the inhibition of HCV NS3 protease complexes, derived from the BMS, H77C or J416S strains, as described below, by compounds of the present invention. This assay provides an indication of how effective compounds of the present invention would be in inhibiting HCV proteolytic activity.
Serum from an HCV-infected patient was obtained from Dr. T. Wright, San Francisco Hospital. An engineered full-length cDNA (compliment deoxyribonucleic acid) template of the HCV genome (BMS strain) was constructed from DNA fragments obtained by reverse transcription-PCR(RT-PCR) of serum RNA (ribonucleic acid) and using primers selected on the basis of homology between other genotype 1a strains. From the determination of the entire genome sequence, a genotype 1a was assigned to the HCV isolate according to the classification of Simmonds et al. (See P Simmonds, Kans. Rose, S Graham, S W Chan, F McOmish, B C Dow, E A Follett, P L Yap and H Marsden, J. Clin. Microbiol., 31(6), 1493-1503 (1993)). […]

T1 sequence (P27958 1027-1657 C1454S): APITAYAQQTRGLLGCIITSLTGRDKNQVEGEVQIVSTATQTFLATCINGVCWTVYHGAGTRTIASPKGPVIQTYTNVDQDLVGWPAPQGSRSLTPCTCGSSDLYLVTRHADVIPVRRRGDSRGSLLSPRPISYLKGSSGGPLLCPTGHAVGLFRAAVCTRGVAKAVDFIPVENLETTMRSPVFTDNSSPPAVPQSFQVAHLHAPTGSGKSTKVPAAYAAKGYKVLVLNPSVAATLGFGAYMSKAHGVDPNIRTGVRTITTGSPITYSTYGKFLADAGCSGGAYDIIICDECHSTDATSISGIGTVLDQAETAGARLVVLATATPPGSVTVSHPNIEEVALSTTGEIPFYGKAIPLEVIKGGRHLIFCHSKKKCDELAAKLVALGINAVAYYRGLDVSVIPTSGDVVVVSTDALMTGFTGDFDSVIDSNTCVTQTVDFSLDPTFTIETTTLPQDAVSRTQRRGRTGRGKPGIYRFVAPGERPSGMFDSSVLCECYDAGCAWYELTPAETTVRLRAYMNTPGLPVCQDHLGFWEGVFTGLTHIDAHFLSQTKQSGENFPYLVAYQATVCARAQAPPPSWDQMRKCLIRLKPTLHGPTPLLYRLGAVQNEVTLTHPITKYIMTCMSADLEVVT
T1 sequence (P27958 1658-1714 partner, looked up, stated change not applied): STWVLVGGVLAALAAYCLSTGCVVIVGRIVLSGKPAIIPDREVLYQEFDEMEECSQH

Q: With `C=C[C@@H]1C[C@]1(NC(=O)[C@@H]1C[C@@H](Oc2nc(C3CC3)cc3ccccc23)CN1C(=O)[C@@H](NC(=O)OC(C)(C)C)C(C)(C)C)C(=O)NS(=O)(=O)C1CC1` [Compound 34] as the molecule, how does the pIC50 read?
A: 8.52
